Test results: patent publication US20240228489A1, “POSITIVE ALLOSTERIC MODULATORS OF THE MUSCARINIC ACETYLCHOLINE RECEPTOR M1” (Vanderbilt University, priority 2021, published 2024); call rule not given here
pEC50: −log10 of the molar value.

Legend:
human mAChR M1 [1] = molecular target: T1, human mAChR M1 (Homo sapiens, UniProt P11229); assay: mAChR M1 cell-based functional assay (calcium mobilization), agonist mode: compound alone, Emax relative to acetylcholine maximum; settings: for Agonist Activity Human M1 EC50 / pEC50: human mAChR M1; for Emax: relative to the maximum for acetylcholine
T1 sequence (P11229 1-460): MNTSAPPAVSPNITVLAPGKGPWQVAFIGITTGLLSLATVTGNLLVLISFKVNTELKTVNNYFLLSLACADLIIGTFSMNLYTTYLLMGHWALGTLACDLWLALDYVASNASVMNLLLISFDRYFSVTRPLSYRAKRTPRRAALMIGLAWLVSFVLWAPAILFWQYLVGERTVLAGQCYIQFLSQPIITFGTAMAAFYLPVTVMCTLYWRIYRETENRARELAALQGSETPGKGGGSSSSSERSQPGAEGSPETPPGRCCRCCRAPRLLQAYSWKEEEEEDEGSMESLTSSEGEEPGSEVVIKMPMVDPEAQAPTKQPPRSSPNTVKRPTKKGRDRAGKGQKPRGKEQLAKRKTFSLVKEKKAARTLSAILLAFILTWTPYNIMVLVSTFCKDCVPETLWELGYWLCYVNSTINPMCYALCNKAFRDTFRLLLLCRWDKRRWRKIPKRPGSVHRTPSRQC
Outline: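 CHO-K1 cells stably expressing hM1 were loaded with Fluo-4 AM, and calcium flux was read as fluorescence ratio. Compound was added alone from an 11-point 1:3 curve, and the agonist response was fitted with a four-parameter logistic. Emax is expressed relative to the acetylcholine maximum.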

human mAChR M1 [2] = molecular target: T1, human mAChR M1; assay: mAChR M1 cell-based functional assay (calcium mobilization), PAM mode: increase in the EC20 acetylcholine response
Outline: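 CHO-K1 cells stably expressing hM1, Fluo-4 loaded, read by FDSS calcium flux at 1 Hz. Compound (11-point 1:3 CRC) added at 4 s, EC20 acetylcholine at 144 s, EC80 at 230 s. PAM activity taken as concentration-dependent increase in EC20 ACh response, fitted by four-parameter logistic for EC50/Emax.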

Row | Compound | Agonist Activity Human M1 EC50 (human mAChR M1 [1]) | Emax (human mAChR M1 [1]) | pEC50 (human mAChR M1 [2]) | Emax (human mAChR M1 [2]) | pEC50 (human mAChR M1 [1])
1 | [2H]C1([2H])c2ncccc2C(=O)N1Cc1c(F)cc(-c2cccc3nn(C)cc23)cc1Cl [Compound 166, 6-(2-chloro-6-fluoro-4-(2-methyl-2H-indazol-4-yl)benzyl)-6,7-dihydro-5H-pyrrolo[3,4-b]pyridin-5-one-7,7-d2] | Inactive | 5% | 6.50 | 82% | –
2 | [2H]C1([2H])c2ncccc2C(=O)N1Cc1c(F)cc(-c2ccc3nn(C)cc3c2)cc1Cl [Compound 167, 6-(2-chloro-6-fluoro-4-(2-methyl-2H-indazol-5-yl)benzyl)-6,7-dihydro-5H-pyrrolo[3,4-b]pyridin-5-one-7,7-d2] | Inactive | 2% | 6.59 | 85% | –
3 | [2H]C1([2H])c2ncccc2C(=O)N1Cc1c(F)cc(-c2cnc3nn(C)cc3c2)cc1Cl [Compound 168, 6-(2-chloro-6-fluoro-4-(2-methyl-2H-pyrazolo[3,4-b]pyridin-5-yl)benzyl)-6,7-dihydro-5H-pyrrolo[3,4-b]pyridin-5-one-7,7-d2] | Inactive | 6% | 5.83 | 86% | –
4 | [2H]C1([2H])c2ncccc2C(=O)N1Cc1c(F)cc(-c2ccc(OC3CC3)c3nn(C)cc23)cc1Cl [Compound 169, 6-(2-chloro-4-(7-cyclopropoxy-2-methyl-2H-indazol-4-yl)-6-fluorobenzyl)-6,7-dihydro-5H-pyrrolo[3,4-b]pyridin-5-one-7,7-d2] | Inactive | 7% | 6.20 | 81% | –
5 | [2H]C1([2H])c2ncccc2C(=O)N1Cc1c(F)cc(-c2ccc(OCCOC)c3nn(C)cc23)cc1Cl [Compound 170, 6-(2-chloro-6-fluoro-4-(7-(2-methoxyethoxy)-2-methyl-2H-indazol-4-yl)benzyl)-6,7-dihydro-5H-pyrrolo[3,4-b]pyridin-5-one-7,7-d2] | Inactive | 9% | 6.49 | 81% | –
6 | [2H]C1([2H])c2ncccc2C(=O)N1Cc1c(F)cc(-c2ccc(O[C@@H](C)COC)c3nn(C)cc23)cc1F [Compound 171, (S)-6-(2,6-difluoro-4-(7-((1-methoxypropan-2-yl)oxy)-2-methyl-2H-indazol-4-yl)benzyl)-6,7-dihydro-5H-pyrrolo[3,4-b]pyridin-5-one-7,7-d2] | – | 31% | 6.47 | 81% | ≤ 5.00
7 | [2H]C1([2H])c2ncccc2C(=O)N1Cc1c(F)cc(-c2ccc(OC[C@@H](C)OC)c3nn(C)cc23)cc1F [Compound 172, (R)-6-(2,6-difluoro-4-(7-(2-methoxypropoxy)-2-methyl-2H-indazol-4-yl)benzyl)-6,7-dihydro-5H-pyrrolo[3,4-b]pyridin-5-one-7,7-d2] | – | 27% | 6.45 | 82% | ≤ 5.00
8 | [2H]C1([2H])c2ncccc2C(=O)N1Cc1c(F)cc(-c2ccc(OC3CN(C(=O)OC(C)(C)C)C3)c3nn(C)cc23)cc1F [Compound 173, tert-butyl 3-((4-(3,5-difluoro-4-((5-oxo-5,7-dihydro-6H-pyrrolo[3,4-b]pyridin-6-yl-7,7-d2)methyl)phenyl)-2-methyl-2H-indaazol-7-yl)oxy)azetidine-1-carboxylate] | Inactive | 2% | 5.87 | 82% | –
9 | [2H]C1([2H])c2ncccc2C(=O)N1Cc1c(F)cc(-c2ccc(OCC3(C#N)CC3)c3nn(C)cc23)cc1F [Compound 174, 1-(((4-(3,5-difluoro-4-((5-oxo-5,7-dihydro-6H-pyrrolo[3,4-b]pyridin-6-yl-7,7-d2)methyl)phenyl)-2-methyl-2H-indazol-7-yl)oxy)methyl)cyclopropane-1-carbonitrile] | – | 26% | 6.71 | 86% | 5.09
10 | [2H]C1([2H])c2ncccc2C(=O)N1Cc1ccc(-c2ccc(OC[C@@H](C)OC)c3nn(C)cc23)cc1F [Compound 175, (R)-6-(2-fluoro-4-(7-(2-methoxypropoxy)-2-methyl-2H-indazol-4-yl)benzyl)-6,7-dihydro-5H-pyrrolo[3,4-b]pyridin-5-one-7,7-d2] | – | 12% | 6.08 | 86% | ≤ 5.00
11 | [2H]C1([2H])c2ncccc2C(=O)N1Cc1ccc(-c2ccc(OC3CN(C(=O)OC(C)(C)C)C3)c3nn(C)cc23)cc1F [Compound 176, tert-butyl 3-((4-(3-fluoro-4-((5-oxo-5,7-dihydro-6H-pyrrolo[3,4-b]pyridin-6-yl-7,7-d2)methyl)phenyl)-2-methyl-2H-indazol-7-yl)oxy)azetidine-1-carboxylate] | Inactive | 2% | 5.88 | 60% | –
12 | [2H]C1([2H])c2ncccc2C(=O)N1Cc1c(C)cc(-c2ccc(OCCOC)c3nn(C)cc23)cc1F [Compound 177, 6-(2-fluoro-4-(7-(2-methoxyethoxy)-2-methyl-2H-indazol-4-yl)-6-methylbenzyl)-6,7-dihydro-5H-pyrrolo[3,4-b]pyridin-5-one-7,7-d2] | – | 27% | 6.70 | 82% | 5.21
13 | [2H]C1([2H])c2ncccc2C(=O)N1Cc1ccc(-c2ccc(OCC3(C#N)CC3)c3nn(C)cc23)cc1F [Compound 178, 1-(((4-(3-fluoro-4-((5-oxo-5,7-dihydro-6H-pyrrolo[3,4-b]pyridin-6-yl-7,7-d2)methyl)phenyl)-2-methyl-2H-indazol-7-yl)oxy)methyl)cyclopropane-1-carbonitrile] | Inactive | 9% | 6.56 | 79% | –
14 | [2H]C1([2H])c2ncccc2C(=O)N1Cc1c(F)cc(-c2ccc(OCC3CN(C(=O)OC(C)(C)C)C3)c3nn(C)cc23)cc1F [Compound 179, tert-butyl 3-(((4-(3,5-difluoro-4-((5-oxo-5,7-dihydro-6H-pyrrolo[3,4-b]pyridin-6-yl-7,7-d2)methyl)phenyl)-2-methyl-2H-indazol-7-yl)oxy)methyl)azetidine-1-carboxylate] | Inactive | 1% | 5.95 | 55% | –
15 | [2H]C1([2H])c2ncccc2C(=O)N1Cc1c(F)cc(-c2ccc(OC3CN(C(C)C)C3)c3nn(C)cc23)cc1F [Compound 180, 6-(2,6-difluoro-4-(7-((1-isopropylazetidin-3-yl)oxy)-2-methyl-2H-indazol-4-yl)benzyl)-6,7-dihydro-5H-pyrrolo[3,4-b]pyridin-5-one-7,7-d2] | Inactive | 9% | 6.53 | 85% | –
16 | [2H]C1([2H])c2ncccc2C(=O)N1Cc1c(F)cc(-c2ccc(SC)c3nn(C)cc23)cc1F [Compound 181, 6-(2,6-difluoro-4-(2-methyl-7-(methylthio)-2H-indazol-4-yl)benzyl)-6,7-dihydro-5H-pyrrolo[3,4-b]pyridin-5-one-7,7-d2] | Inactive | 9% | 6.32 | 82% | –
17 | [2H]C1([2H])c2ncccc2C(=O)N1Cc1c(F)cc(-c2ccc(S(C)(=N)=O)c3nn(C)cc23)cc1F (centres unmarked) [Compound 182, 6-(2,6-difluoro-4-(2-methyl-7-(S-methylsulfonimidoyl)-2H-indazol-4-yl)benzyl)-6,7-dihydro-5H-pyrrolo[3,4-b]pyridin-5-one-7,7-d2] | Inactive | 3% | 6.23 | 87% | –
18 | [2H]C1([2H])c2ncccc2C(=O)N1Cc1c(F)cc(-c2ccc(OC3CC3)c3nn(C([2H])([2H])[2H])cc23)cc1F [Compound 183, 6-(4-(7-cyclopropoxy-2-(methyl-d3)-2H-indazol-4-yl)-2,6-difluorobenzyl)-6,7-dihydro-5H-pyrrolo[3,4-b]pyridin-5-one-7,7-d2] | – | 13% | 6.27 | 86% | ≤ 5.00
19 | [2H]C1([2H])c2ncccc2C(=O)N1Cc1c(F)cc(-c2ccc(OC3CN(CCCC)C3)c3nn(C)cc23)cc1F [Compound 184, 6-(4-(7-((1-butylazetidin-3-yl)oxy)-2-methyl-2H-indazol-4-yl)-2,6-difluorobenzyl)-6,7-dihydro-5H-pyrrolo[3,4-b]pyridin-5-one-7,7-d2] | Inactive | 5% | 6.29 | 87% | –
20 | [2H]C1([2H])c2ncccc2C(=O)N1Cc1c(F)cc(-c2ccc(OCSC)c3nn(C)cc23)cc1F [Compound 185, 6-(2,6-difluoro-4-(2-methyl-7-((methylthio)methoxy)-2H-indazol-4-yl)benzyl)-6,7-dihydro-5H-pyrrolo[3,4-b]pyridin-5-one-7,7-d2] | Inactive | 6% | 6.14 | 74% | –
